Like-named read-outs stand apart in the source and are kept apart here.
Columns and labels:
[1] = target: human RORγt ligand binding domain (RORγt LBD) (Homo sapiens (Human), UniProt P51449); assay: RORγt ThermoFluor® assay (thermal shift binding); details: read-out: ThermoFluor® Assay, Kd
Method in brief: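 His-tagged human RORγt LBD (0.065 mg/mL) with 60 μM 1,8-ANS in 100 mM Hepes pH 7.0, 10 mM NaCl, 2.5 mM GSH, 0.002% Tween-20 was heated at 1 °C/min.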

full-length human RORγt = full-length human RORγt (Homo sapiens (Human), UniProt P51449); assay: RORγt (full-length human) reporter assay, Conditions B or C; format: cell-based; details: for RORγt (FL) Reporter Assay B or C, % inhibition (value marked *): marked *: footnote not given; for inhibition at 3 µM: at 3 μM compound concentration
Method in brief: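 HEK293T cells transiently co-transfected with GAL4-DBD–full-length human RORγt (nt 142-1635, NM_001001523.1) plus GAL4-firefly and CMV-Renilla luciferase reporters; compounds added 4-6 h post-transfection for 16-20 h in 1.3% FBS, 0.1% DMSO. Firefly signal normalized to DMSO and saturating reference compound, then to Renilla; IC50 from concentration plots.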

[2] = read-out: RORγt (FL) Reporter Assay B or C, IC50
[3] = Conditions B or C, read-out: RORγt (FL) Reporter Assay B or C, IC50
[4] = read-out: RORγt (FL) Reporter Assay B or C, % inhibition

human RORγt ligand binding domain (RORγt LBD), sequence (P51449 other isoform, or with tags, fused parts or gaps): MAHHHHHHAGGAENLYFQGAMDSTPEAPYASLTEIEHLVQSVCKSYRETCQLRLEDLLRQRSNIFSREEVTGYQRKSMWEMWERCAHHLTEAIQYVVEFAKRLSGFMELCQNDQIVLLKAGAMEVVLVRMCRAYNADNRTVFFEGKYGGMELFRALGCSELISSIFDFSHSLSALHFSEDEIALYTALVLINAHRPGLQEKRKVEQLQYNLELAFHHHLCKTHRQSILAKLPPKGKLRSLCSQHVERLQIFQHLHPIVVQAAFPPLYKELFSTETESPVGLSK
full-length human RORγt, sequence (P51449 other isoform, or with tags, fused parts or gaps): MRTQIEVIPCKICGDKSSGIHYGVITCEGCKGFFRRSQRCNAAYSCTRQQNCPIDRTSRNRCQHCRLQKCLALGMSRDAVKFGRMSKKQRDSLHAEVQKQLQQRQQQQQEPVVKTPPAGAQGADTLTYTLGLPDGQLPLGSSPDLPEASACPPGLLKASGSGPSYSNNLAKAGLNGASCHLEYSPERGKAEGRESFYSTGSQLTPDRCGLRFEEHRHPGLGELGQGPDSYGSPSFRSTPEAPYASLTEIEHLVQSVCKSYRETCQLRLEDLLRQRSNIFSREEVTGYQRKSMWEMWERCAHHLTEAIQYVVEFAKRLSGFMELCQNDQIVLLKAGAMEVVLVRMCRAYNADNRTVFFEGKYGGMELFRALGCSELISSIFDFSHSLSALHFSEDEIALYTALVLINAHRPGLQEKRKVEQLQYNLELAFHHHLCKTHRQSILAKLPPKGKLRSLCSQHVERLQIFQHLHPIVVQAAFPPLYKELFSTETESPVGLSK

Structure (SMILES) | Kd [1] [nM] | inhibition at 1 µM (full-length human RORγt; at 1 μM compound concentration, read-out: RORγt (FL) Reporter Assay B or C, % inhibition) [%] | IC50 (full-length human RORγt; [2]) [nM] | RORγt (FL) Reporter Assay B or C, % inhibition (value marked *) (full-length human RORγt; Conditions B or C) | IC50 (full-length human RORγt; [3]) [nM] | inhibition at 3 µM (full-length human RORγt; [4]) [%] | IC50 (full-length human RORγt; RORγt (FL) Reporter Assay B or C, IC50) [nM] | RORγt (FL) Reporter Assay B or C, % inhibition (value marked ***) (full-length human RORγt; Conditions B or C, marked ***: footnote not given)
CC[C@H](Nc1cc(C(F)F)c(-c2sc(C(=O)N[C@H]3CC[C@H](O)C3)nc2C(=O)N2CC(F)(F)C[C@@H]2C)cn1)C(F)(F)F [Example 416, 4-[(2S)-4,4-Difluoro-2-methyl-pyrrolidine-1-carbonyl]-5-[4-(difluoromethyl)-6-[[(1S)-1-(trifluoromethyl)propyl]amino]-3-pyridyl]-N-[(1S,3S)-3-hydroxycyclopentyl]thiazole-2-carboxamide] | 0.43 | 89 | 37 |  |  |  |  | 
C[C@H](Nc1cc(C(F)(F)F)c(-c2sc(C(=O)NCC(C)(C)O)nc2C(=O)N2CC(F)(F)C[C@@H]2C)cn1)C(F)(F)F [Example 110, 4-((S)-4,4-Difluoro-2-methylpyrrolidine-1-carbonyl)-N-(2-hydroxy-2-methylpropyl)-5-(4-(trifluoromethyl)-6-(((S)-1,1,1-trifluoropropan-2-yl)amino)pyridin-3-yl)thiazole-2-carboxamide] | 2.2 |  |  | 112* % | 26 |  |  | 
CC[C@H](Nc1cc(C(F)F)c(-c2sc(C(=O)N[C@@H](C)C(C)(C)O)nc2C(=O)N2CCC[C@@H]2C)cn1)C(F)(F)F [Example 272, 5-[4-(Difluoromethyl)-6-[[(1S)-1-(trifluoromethyl)propyl]amino]-3-pyridyl]-N-[(1S)-2-hydroxy-1,2-dimethyl-propyl]-4-[(2S)-2-methylpyrrolidine-1-carbonyl]thiazole-2-carboxamide] | 2.1 |  | 18 |  |  | 105 |  | 
CC[C@@H](Nc1cc(C(F)(F)F)c(-c2sc(C(=O)NCC(C)(C)O)nc2C(=O)N2CCC[C@@H]2C)cn1)C(F)(F)F [Example 282, N-(2-Hydroxy-2-methyl-propyl)-4-[(2S)-2-methylpyrrolidine-1-carbonyl]-5-[4-(trifluoromethyl)-6-[[(1R)-1-(trifluoromethyl)propyl]amino]-3-pyridyl]thiazole-2-carboxamide] | 1.4 |  | 19 |  |  | 109 |  | 
C[C@H]1CCCN1C(=O)c1nc(C(=O)NC2CCOCC2)sc1-c1cnc(NC(C)(C)C)cc1C(F)(F)F [Example 374, 5-[6-(tert-Butylamino)-4-(trifluoromethyl)-3-pyridyl]-4-[(2S)-2-methylpyrrolidine-1-carbonyl]-N-tetrahydropyran-4-yl-thiazole-2-carboxamide] | 1.6 |  | 4.8 |  |  | 121 |  | 
C[C@H](CO)NC(=O)c1nc(C(=O)N2C3CCC2CC3)c(-c2cnc(NC(C)(C)C)cc2C(F)F)s1 [Example 427, 4-((1s,4s)-7-Azabicyclo[2.2.1]heptane-7-carbonyl)-5-[6-(tert-butylamino)-4-(difluoromethyl)-3-pyridyl]-N-[(1R)-2-hydroxy-1-methyl-ethyl]thiazole-2-carboxamide] | 3 |  |  |  |  | 113 | 3 | 
C[C@@H](Nc1cc(C(F)(F)F)c(-c2sc(C(=O)NCC(C)(C)O)nc2C(=O)N2CCC[C@@H]2C)cn1)C1CCC1 (relative stereo) [Example 176, 5-(6-(((R*)-1-Cyclobutylethyl)amino)-4-(trifluoromethyl)pyridine-3-yl)-N-(2-hydroxy-2-methylpropyl)-4-((S)-2-methylpyrrolidine-1-carbonyl)thiazole-2-carboxamide] | 1.3 |  |  |  | 15 |  |  | 115*** %
CC[C@H](Nc1cc(C(F)F)c(-c2sc(C(=O)N3CCOCC3)nc2C(=O)N2CCC[C@@H]2C)cn1)C(F)(F)F [Example 395, [5-[4-(Difluoromethyl)-6-[[(1S)-1-(trifluoromethyl)propyl]amino]-3-pyridyl]-2-(morpholine-4-carbonyl)thiazol-4-yl]-[(2S)-2-methylpyrrolidin-1-yl]methanone] | 40 |  | 34 |  |  | 103 |  | 
C[C@H]1CCCN1C(=O)c1nc(C(=O)NCC(O)C(F)(F)F)sc1-c1cnc(NC(C)(C)C)cc1C(F)(F)F (stereo in doubt) [Example 352, 5-[6-(tert-Butylamino)-4-(trifluoromethyl)-3-pyridyl]-4-(2-methylpyrrolidine-1-carbonyl)-N-(3,3,3-trifluoro-2-hydroxy-propyl)thiazole-2-carboxamide] | 1.1 |  | 42 |  |  | 103 |  | 
C[C@H]1CCCN1C(=O)c1nc(C(=O)NCC(C)(O)C(F)(F)F)sc1-c1cnc(NC(C)(C)C)cc1C(F)(F)F (stereo partly drawn) [Example 357, 5-(6-(tert-Butylamino)-4-(trifluoromethyl)pyridin-3-yl)-4-((S)-2-methylpyrrolidine-1-carbonyl)-N-(3,3,3-trifluoro-2-hydroxy-2-methylpropyl)thiazole-2-carboxamide] | 1.2 |  | 12 |  |  | 106 |  | 
C[C@H]1CCCN1C(=O)c1nc(C(=O)NCC(C)(C)O)sc1-c1cnc(N[C@@H](C2CC2)C(F)(F)F)cc1C(F)F [Example 295] | 2.9 |  | 14 |  |  | 108 |  | 
CC[C@H](Nc1cc(C(F)F)c(-c2sc(C(=O)N[C@@H]3CC[C@H]3O)nc2C(=O)N2C3CCC2CC3)cn1)C(F)(F)F (relative stereo) [Example 405, 4-((1s,4s)-7-Azabicyclo[2.2.1]heptane-7-carbonyl)-5-(4-(difluoromethyl)-6-(((S)-1,1,1-trifluorobutan-2-yl)amino)pyridin-3-yl)-N-((1R*,2R*)-2-hydroxycyclobutyl)thiazole-2-carboxamide] | 2 |  | 110 |  |  | 95 |  | 
CC[C@H](Nc1cc(C(F)F)c(-c2sc(C(=O)NC3CCOCC3)nc2C(=O)N2CCC[C@@H]2C)cn1)C(F)(F)F [Example 394, 5-[4-(Difluoromethyl)-6-[[(1S)-1-(trifluoromethyl)propyl]amino]-3-pyridyl]-4-[(2S)-2-methylpyrrolidine-1-carbonyl]-N-tetrahydropyran-4-yl-thiazole-2-carboxamide] | 2 |  | 34 |  |  | 114 |  | 
C[C@H]1CCCN1C(=O)c1nc(C(=O)NCC(C)(C)O)sc1-c1cnc(NC(C)(C)C2CC2)cc1C(F)(F)F [Example 56, (S)-5-(6-((2-Cyclopropylpropan-2-yl)amino)-4-(trifluoromethyl)pyridin-3-yl)-N-(2-hydroxy-2-methylpropyl)-4-(2-methylpyrrolidine-1-carbonyl)thiazole-2-carboxamide] | 0.34 |  |  | 106* % | 3.6 |  |  | 
C[C@H]1CCCN1C(=O)c1nc(C(=O)NCC2(O)COC2)sc1-c1cnc(NC2CCCC2)cc1C(F)F [Example 73, (S)-5-(6-(Cyclopentylamino)-4-(difluoromethyl)pyridin-3-yl)-N-((3-hydroxyoxetan-3-yl)methyl)-4-(2-methylpyrrolidine-1-carbonyl)thiazole-2-carboxamide] | 11 |  |  | 104* % | 74 |  |  | 
C[C@@H](Nc1cc(C(F)(F)F)c(-c2sc(C(=O)NCC(C)(C)O)nc2C(=O)N2C3CCC2CC3)cn1)C1CCC1 (stereo in doubt) [Example 172, 4-((1s,4s)-7-Azabicyclo[2.2[1]heptane-7-carbonyl)-5-(6-(((R*)-1-cyclobutylethyl)amino)-4-(trifluoromethyl)pyridine-3-yl)-N-(2-hydroxy-2-methylpropyl)thiazole-2-carboxamide] | 1.2 |  |  | 102* % | 39 |  |  | 
C[C@H](Nc1cc(C(F)F)c(-c2sc(C(=O)N[C@@H]3CC[C@@H](O)C3)nc2C(=O)N2CCC[C@@H]2C)cn1)C(F)(F)F [Example 289, 5-(4-(Difluoromethyl)-6-(((S)-1,1,1-trifluoropropan-2-yl)amino)pyridin-3-yl)-N-((1R,3R)-3-hydroxycyclopentyl)-4-((S)-2-methylpyrrolidine-1-carbonyl)thiazole-2-carboxamide] | 3.8 |  | 69 |  |  | 99 |  | 
C[C@H](Nc1cc(C(F)F)c(-c2sc(C(=O)N[C@H]3COC[C@H]3O)nc2C(=O)N2CCC[C@@H]2C)cn1)C(F)(F)F (single isomer, unassigned) [Example 160, 5-(4-(Difluoromethyl)-6-(((S)-1,1,1-trifluoropropan-2-yl)amino)pyridin-3-yl)-N-((3S*,4S*)-4-hydroxytetrahydrofuran-3-yl)-4-((S)-2-methylpyrrolidine-1-carbonyl)thiazole-2-carboxamide] | 8.7 |  |  | 101* % | 410 |  |  | 
C[C@H]1CCCN1C(=O)c1nc(C(=O)N[C@@H]2CCC[C@H]2O)sc1-c1cnc(NC(C)(C)C)cc1C(F)F [Example 397, 5-[6-(tert-Butylamino)-4-(difluoromethyl)-3-pyridyl]-N-[(1R,2R)-2-hydroxycyclopentyl]-4-[(2S)-2-methylpyrrolidine-1-carbonyl]thiazole-2-carboxamide] | 1.2 |  | 9 |  |  | 118 |  | 

Reference: patent publication US10975068B2, “6-aminopyridin-3-yl thiazoles as modulators of RORγT” (Janssen Pharmaceutica NV, priority 2016, dated 2021)
